The values that follow come from publication PMC11089204 (Frontiers in Pharmacology, 2024).

A short description of series [1]: Pharmacokinetics and metabolites in mouse plasma after oral psilocybin. The series is classed as in vivo, C57BL/6J mice. As to conditions: 3 mg/kg psilocybin p.o. How it is done: C57BL/6J adult male mice (Janvier, Le Genest-Saint-Isle, France) were maintained in littermate pairs in standard cages (containing sawdust, a sleeping chamber, tissue paper, and a wood stick) with water and pellet food available ad libitium. The colony room was on a reversed light-dark cycle (dark phase 07:00 to 19:00) with temperature at 22°C and humidity at 50–60%. A total of 10 mice were dosed orally with either 3 mg/kg bodyweight psilocybin (n = 5) or saline solution (n = 5). Dosing and blood sampling were conducted between 09:00 and 13:00. The mouse was placed in a plastic restrainer with the tail protruding through a hole in the end of the tube. The tail was immersed in warm water for 1 min for vasodilation and then a small incision was made on the lateral tail surface near the distal tip. 50 μL of blood was massaged gently into an EDTA-coated capillary blood tube (Mircovette, Sarstedt, Nümbrecht, Germany). The first (baseline) blood sample was collected directly before compound administration via oral gavage and the mouse was then returned to the home cage. Further blood samples were collected at 15, 30, 60, and 120 min post-treatment. Each sample was drawn from the same incision site, with mice maintained in the home cage in the intervening periods. The blood samples were stored on ice and centrifuged for 10 min at 780 × g and 4°C. Subsequently, the plasma was transferred into cryotubes (Protein LoBind, Eppendorf) and stored at −80 °C until analysis. All procedures were conducted under a permit for animal experimentation (ZH038/2022) issued by the Veterinary Office Zurich in accordance with the Animal Protection Act (1978) of Switzerland. The use of psilocybin was authorized by the Federal Office of Public Health (FOPH).
Pharmacokinetic parameters were calculated using Phoenix WinNonlin software (version 8.1.0, Certara, Princeton, USA). The elimination half-life (t1/2, min) was assessed as t1/2 = ln(2)/λ, while the elimination constant was calculated by linear regression in the terminal elimination phase. The maximal plasma concentration (Cmax, ng/mL) and the time to reach this concentration (tmax, h) were direct read-outs of the graphical plots.

The target in series [2] is T1, recombinant CYP2D6 (Homo sapiens, UniProt P10635).
T1 construct: purchased Corning Life Sciences B.V
T1 sequence (P10635 whole entry): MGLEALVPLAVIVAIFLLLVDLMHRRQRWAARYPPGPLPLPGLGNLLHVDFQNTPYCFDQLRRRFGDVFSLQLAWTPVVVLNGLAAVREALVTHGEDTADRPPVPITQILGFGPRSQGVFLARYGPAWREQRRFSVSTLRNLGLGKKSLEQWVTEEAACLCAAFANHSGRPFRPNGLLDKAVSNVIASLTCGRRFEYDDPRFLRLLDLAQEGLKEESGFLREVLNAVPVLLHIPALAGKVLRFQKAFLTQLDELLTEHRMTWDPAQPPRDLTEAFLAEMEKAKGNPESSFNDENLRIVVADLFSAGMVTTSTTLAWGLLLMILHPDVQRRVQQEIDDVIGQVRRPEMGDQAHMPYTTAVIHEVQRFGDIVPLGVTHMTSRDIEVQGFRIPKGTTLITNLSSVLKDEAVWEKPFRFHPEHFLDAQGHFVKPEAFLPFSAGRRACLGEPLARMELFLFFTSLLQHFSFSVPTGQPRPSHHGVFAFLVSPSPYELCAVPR
As to the kind of experiment: Incubation with recombinant CYP2D6 enzymes. The series is classed as in vitro ADME. As to conditions: rec. CYP2D6 with CYP2D6 inhibitor quinidine. How it is done: Corning UltraPool human liver microsomes (HLM) 150 (20 mg/mL), human intestinal microsomes (HIM) pool (10 mg/mL) as well as recombinant human CYP enzymes (with P450 oxidoreductase, OR) including CYP1A2+OR (0.5 nmol), CYP2B6+OR (0.5 nmol), CYP2C8+OR (1.0 nmol), CYP2C9*1+OR (1 nmol), CYP2C19+OR (0.5 nmol), CYP2D6*1+OR (0.5 nmol), CYP2E1+OR + cytochrome b5 (1 nmol), CYP3A4+OR + cytochrome b5 (0.5 nmol), MAO-A (5 mg/mL), MAO-B (5 mg/mL), and UGT1A10 (5 mg/mL) were purchased from Corning Life Sciences B.V (Amsterdam, Netherlands). All microsomes and recombinant enzyme solutions were aliquoted and stored at −80 °C until further use.
The total volume of the reaction mixture was 500 μL. […] Samples were either directly analyzed by liquid chromatography tandem mass spectrometry (LC-MS/MS) or briefly stored at −20°C until analysis.

The target in series [3] is mouse 5-HT2A receptor. More on the design: method as in Sherwood et al., 2020. To be noted: Gq-dependent calcium flux, nearly full agonist; ref Sherwood et al., 2020; cited from earlier work.
Series [4] concerns mice. The arrangement: method as in Sherwood et al., 2020. To be noted: ref Sherwood et al., 2020; cited from earlier work.
The nature of series [5]: Metabolites in human plasma after oral psilocybin (reanalysed study samples). To be noted: 30 mg psilocybin p.o., n = 5.

`CNCCc1c[nH]c2cccc(O)c12` [norpsilocin, N-methyl-4-hydroxytryptamine]: the Tmax in series [1] (male, C57BL/6J, po, mouse plasma, n = 5, read-out: tmax (mean ± SD)) was about 15 min. Further, the “metabolite formation on co-incubation with quinidine” value in series [2] was “reduced and delayed formation”. For the same molecule, in series [3], the EC50 was under 0.01 µM. Besides, the “psychoactive properties in head-twitch response” value in series [4] is “did not show any psychoactive properties”. Moreover, the “detection in human plasma” value in series [5] was “neither norpsilocin nor 4-HTP was detected”.

Take `CN(C)CCc1c[nH]c2cccc(OP(=O)(O)O)c12` [psilocybin]: in series [1], the “detection in mouse plasma” value is given as “did not detect”. Further, the “detection in human plasma” value in series [5] was “did not detect”.
